Source: patent US7211557B2, “Use of GLP-1 analogs and derivatives administered peripherally in regulation of obesity” (Eli Lilly and Company, priority 1996, dated 2007)

Columns and labels:
STC-1 cells = settings: exposure of STC-1 cells; cited from earlier work
[1] = Continuous subcutaneous infusion of GLP-1(7-36) amide for four weeks in NIDDM patients, preceded and followed by two weeks of intensive insulin therapy: body weight; format: in vivo, human; settings: for body weight lost, average: four patients, mean±SEM
[2] = cited from earlier work
[3] = cited from earlier work; remark: listed apart in the source

**Q.** With CCCCCCCCCCCCCC(=O)O[C@@H]1[C@@H](C)[C@@]2(O)[C@@H](C=C(CO)C[C@]3(O)C(=O)C(C)=C[C@@H]23)[C@@H]2C(C)(C)[C@]12OC(C)=O [TPA, 12-O-tetradecanoylphorbol-13-acetate] as the molecule, how does the “release of GLP-1” value (STC-1 cells) read?
**A.** significant increases in release of GLP-1

**Q.** For GLP-1(7-36) amide, which “body weight lost, average” value ([1]; during GLP-1 treatment (4 weeks)) is on record?
**A.** 3.5 ± 1.2 kg

**Q.** What about the “Weight Change” value ([1]; mean±SEM of patients, GLP-1 infusion 1.2 pmol/kg/minute s.c., 4 weeks) of the same molecule?
**A.** -3.5 ± 1.2 kg

**Q.** What about the “Patient Weight” value ([1]; mean±SEM of patients, after GLP-1 infusion 1.2 pmol/kg/minute s.c., 4 weeks) of the same molecule?
**A.** 92.9 ± 5.8 kg

**Q.** What about the “Weight Change” value ([1]; patient four, GLP-1 infusion 1.2 pmol/kg/minute s.c., 4 weeks) of the same molecule?
**A.** -3.0 kg

**Q.** And the “Patient Weight” value ([1]; patient four, after GLP-1 infusion 1.2 pmol/kg/minute s.c., 4 weeks)?
**A.** 108.0 kg

**Q.** What about the “Weight Change” value ([1]; patient one, GLP-1 infusion 1.2 pmol/kg/minute s.c., 4 weeks) of the same molecule?
**A.** -7.0 kg

**Q.** And the “Patient Weight” value ([1]; patient one, after GLP-1 infusion 1.2 pmol/kg/minute s.c., 4 weeks)?
**A.** 92.0 kg

**Q.** What about the “Weight Change” value ([1]; patient three, GLP-1 infusion 1.2 pmol/kg/minute s.c., 4 weeks) of the same molecule?
**A.** -1.9 kg

**Q.** And the “Patient Weight” value ([1]; patient three, after GLP-1 infusion 1.2 pmol/kg/minute s.c., 4 weeks)?
**A.** 80.0 kg

**Q.** And the “Weight Change” value ([1]; patient two, GLP-1 infusion 1.2 pmol/kg/minute s.c., 4 weeks)?
**A.** -2.0 kg

**Q.** And the “Patient Weight” value ([1]; patient two, after GLP-1 infusion 1.2 pmol/kg/minute s.c., 4 weeks)?
**A.** 91.5 kg

**Q.** And the “effect on body weight” value ([1]; peripheral administration to obese patients)?
**A.** significant reduction in body weight

**Q.** And the food intake ([2]; acute intraperitoneal administration in rats)?
**A.** does not affect food intake

**Q.** What about the early dark-phase feeding ([2]; intraperitoneal administration, even at relatively high doses) of the same molecule?
**A.** does not affect early dark-phase feeding

**Q.** What about the “food intake following injection of neuropeptide Y” value ([3]; ICV, animals fed ad libitum) of the same molecule?
**A.** significantly reduces food intake

**Q.** And the feeding ([3]; intracerebroventricular route (ICV), fasted rats)?
**A.** markedly inhibits feeding

**Q.** Which results are given for insulin?
**A.** body weight lost, average ([1]; first two weeks of intensive insulin treatment): 1.3 ± 0.6 kg; Weight Change ([1]; mean±SEM of patients (no data for MP), Second Insulin treatment, 2 weeks): +1.0 ± 1.0 kg; Patient Weight ([1]; mean±SEM of patients (no data for MP), after Second Insulin treatment, 2 weeks): 98.2 ± 5.0 kg; Weight Change ([1]; mean±SEM of patients, First Insulin treatment, 2 weeks): -1.3 ± 0.6 kg; Patient Weight ([1]; mean±SEM of patients, after First Insulin treatment, 2 weeks): 96.4 ± 6.0 kg; Weight Change ([1]; patient four, First Insulin treatment, 2 weeks): -2.0 kg; Weight Change ([1]; patient four, Second Insulin treatment, 2 weeks): 0.0 kg; Patient Weight ([1]; patient four, after First Insulin treatment, 2 weeks): 111.0 kg; Patient Weight ([1]; patient four, after Second Insulin treatment, 2 weeks): 108.0 kg; Weight Change ([1]; patient one, First Insulin treatment, 2 weeks): -2.5 kg; Weight Change ([1]; patient one, Second Insulin treatment, 2 weeks): 3.0 kg; Patient Weight ([1]; patient one, after First Insulin treatment, 2 weeks): 99.0 kg; Patient Weight ([1]; patient one, after Second Insulin treatment, 2 weeks): 95.0 kg; Weight Change ([1]; patient three, First Insulin treatment, 2 weeks): -0.1 kg; Patient Weight ([1]; patient three, after First Insulin treatment, 2 weeks): 81.9 kg; Weight Change ([1]; patient two, First Insulin treatment, 2 weeks): -0.5 kg; Weight Change ([1]; patient two, Second Insulin treatment, 2 weeks): 0.0 kg; Patient Weight ([1]; patient two, after First Insulin treatment, 2 weeks): 93.5 kg; Patient Weight ([1]; patient two, after Second Insulin treatment, 2 weeks): 91.5 kg; body weight change, on average ([1]; second two weeks of intensive insulin treatment): gained weight
